In PMC10672942 (2023):

Legend:
pApU (RNA, polymer) A/U [1] = test: UV melting at 260 nm; conditions: Na+ (sodium cacodylate 50 mM); pH 7.0; r = 0.3 [peptide]/[phosphate], polynucleotide 2.0 × 10^-5 M; free Tm 48.9 °C; per base
pApU (RNA, polymer) A/U [2] = test: fluorescence titration; conditions: Na+ (sodium cacodylate 50 mM); pH 7.0, 25 °C; Scatchard fit, fixed n = 0.3; per base
[3] = test system: p(dAdT)2 (DNA, polymer) AT; test: fluorescence titration; conditions: Na+ (sodium cacodylate 50 mM); pH 7.0, 25 °C; Scatchard fit, fixed n = 0.3; per base
[4] = test system: p(dGdC)2 (DNA, polymer) GC; test: fluorescence titration; conditions: Na+ (sodium cacodylate 50 mM); pH 7.0, 25 °C; Scatchard fit, fixed n = 0.3; per base
[5] = test system: ds-dA10-dT10 (oligoAT10) (DNA, duplex) AAAAAAAAAA/TTTTTTTTTT; test: HPLC after irradiation at 300 nm; conditions: ammonium acetate 100 mM; covalent; photoalkylation via quinone methide, 15 and 60 min, pH 7.0

SMILES | ΔTm (pApU (RNA, polymer) A/U [1]) [°C] | logKa (pApU (RNA, polymer) A/U [2]) | logKa [3] | logKa [4] | binding [5]
CN(C)Cc1cc(C[C@H](NC(=O)[C@@H](N)CCCCNC(=O)c2ccc3ccc4cccc5ccc2c3c45)C(=O)OCc2ccccc2)ccc1O | 1.4 ± 0.2 | 6.9 | 6.8 | 6.6 | yes
CN(C)Cc1cc(C[C@H](NC(=O)[C@@H](N)CNC(=O)c2ccc3ccc4cccc5ccc2c3c45)C(=O)OCc2ccccc2)ccc1O | 1.9 ± 0.6 | 6.8 | > 7 | 6.7 | 
